Measurements as given in patent publication US20210259246A1, “SUBSTITUTED 4-HETEROARYLOXYPYRIDINES AND SALTS THEREOF AND THEIR USE AS HERBICIDAL AGENTS” (BAYER AKTIENGESELLSCHAFT, priority 2018, published 2021).

What was measured:
Format in all cases: in vivo
[1] = system: Amaranthus retroflexus (AMARE); test: Herbicidal post-emergence action; conditions: 1280 g/ha; rated visually about 3 weeks after treatment vs untreated controls; 100% = plants have died, 0% = like control plants
Protocol: (§1) Seeds of mono- and dicotyledonous weed plants were placed in plastic pots in sandy loam soil (doubly sown with in each case one species of mono- or dicotyledonous weed plants per pot), covered with soil and cultivated in a greenhouse under controlled growth conditions. 2 to 3 weeks after sowing, the test plants were treated at the one-leaf stage. The compounds of the invention, formulated in the form of wettable powders (WP) or as emulsion concentrates (EC), were applied onto the green parts of the plants as aqueous suspension or emulsion with addition of 0.5% additive at a water application rate of 600 liters per hectare (converted). After the test plants had been kept in the greenhouse under optimum growth conditions for about 3 weeks, the activity of the preparations was rated visually in comparison to untreated controls. For example, 100% activity=the plants have died, 0% activity=like control plants. Tables B1 to B6 below show the effects of selected compounds of the general formula (I) according to Table 1 on various harmful plants and an application rate corresponding to 1280 g/ha, which were obtained by the experimental procedure mentioned above.

[2] = system: Abutilon theophrasti (ABUTH); test: Herbicidal post-emergence action; conditions: 1280 g/ha; rated visually about 3 weeks after treatment vs untreated controls; 100% = plants have died, 0% = like control plants
Protocol: as §1

[3] = system: Stellaria media (STEME); test: Herbicidal post-emergence action; conditions: 1280 g/ha; rated visually about 3 weeks after treatment vs untreated controls; 100% = plants have died, 0% = like control plants
Protocol: as §1

[4] = system: Setaria viridis (SETVI); test: Herbicidal post-emergence action; conditions: 1280 g/ha; rated visually about 3 weeks after treatment vs untreated controls; 100% = plants have died, 0% = like control plants
Protocol: as §1

[5] = system: Echinochloa crus-galli (ECHCG); test: Herbicidal post-emergence action; conditions: 1280 g/ha; rated visually about 3 weeks after treatment vs untreated controls; 100% = plants have died, 0% = like control plants
Protocol: as §1

[6] = system: Poa annua (POAAN); test: Herbicidal post-emergence action; conditions: 1280 g/ha; rated visually about 3 weeks after treatment vs untreated controls; 100% = plants have died, 0% = like control plants
Protocol: as §1

[7] = system: Amaranthus retroflexus (AMARE); test: Herbicidal pre-emergence action; conditions: 1280 g/ha; scored visually after about 3 weeks vs untreated controls; 100% = plants have died, 0% = like control plants
Source text: (§2) Seeds of mono- and dicotyledonous weed plants were placed in plastic pots in sandy loam soil (doubly sown with in each case one species of mono- or dicotyledonous weed plants per pot) and covered with soil. The compounds of the invention, formulated in the form of wettable powders (WP) or as emulsion concentrates (EC), were then applied onto the surface of the covering soil as aqueous suspension or emulsion with addition of 0.5% additive at a water application rate of 600 liters per hectare (converted). After the treatment, the pots were placed in a greenhouse and kept under good growth conditions for the test plants. After about 3 weeks, the effect of the preparations was scored visually in comparison with untreated controls as percentages. For example, 100% activity=the plants have died, 0% activity=like control plants. Tables C1 to C8 below show the effects of selected compounds of the general formula (I) according to Table 1 on various harmful plants and an application rate corresponding to 1280 g/ha, which were obtained by the experimental procedure mentioned above.

[8] = system: Abutilon theophrasti (ABUTH); test: Herbicidal pre-emergence action; conditions: 1280 g/ha; scored visually after about 3 weeks vs untreated controls; 100% = plants have died, 0% = like control plants
Source text: as §2

[9] = system: Stellaria media (STEME); test: Herbicidal pre-emergence action; conditions: 1280 g/ha; scored visually after about 3 weeks vs untreated controls; 100% = plants have died, 0% = like control plants
Source text: as §2

[10] = system: Setaria viridis (SETVI); test: Herbicidal pre-emergence action; conditions: 1280 g/ha; scored visually after about 3 weeks vs untreated controls; 100% = plants have died, 0% = like control plants
Source text: as §2

[11] = system: Echinochloa crus-galli (ECHCG); test: Herbicidal pre-emergence action; conditions: 1280 g/ha; scored visually after about 3 weeks vs untreated controls; 100% = plants have died, 0% = like control plants
Source text: as §2

[12] = system: Lolium rigidum (LOLRI); test: Herbicidal pre-emergence action; conditions: 1280 g/ha; scored visually after about 3 weeks vs untreated controls; 100% = plants have died, 0% = like control plants
Source text: as §2

[13] = system: Poa annua (POAAN); test: Herbicidal pre-emergence action; conditions: 1280 g/ha; scored visually after about 3 weeks vs untreated controls; 100% = plants have died, 0% = like control plants
Source text: as §2

[14] = system: Matricaria inodora (MATIN); test: Herbicidal pre-emergence action; conditions: 1280 g/ha; scored visually after about 3 weeks vs untreated controls; 100% = plants have died, 0% = like control plants
Source text: as §2

[15] = system: Agrostis tenuis (AGSTE); test: Herbicidal early post-emergence action; conditions: 1900 g/ha; scored visually 9 to 12 days after treatment vs untreated controls; 100% = plants have died, 0% = like control plants
Protocol: (§3) Seeds of monocotyledonous or dicotyledonous weed plants were placed in 96-well microtiter plates in quartz sand and grown in a climatized chamber under controlled growth conditions. 5 to 7 days after sowing, the test plants were treated at the cotyledon stage. The compounds according to the invention, formulated in the form of emulsion concentrates (EC), were applied with a water application rate of the equivalent of 2200 liters per hectare. After the test plants had been left to stand in the climatized chamber for 9 to 12 days under optimum growth conditions, the effect of the preparations was scored visually in comparison to untreated controls. For example, 100% activity=the plants have died, 0% activity=like control plants. Tables A1 to A6 below show the effects of selected compounds of the general formula (I) according to Table 1 on various harmful plants and an application rate corresponding to 1900 g/ha, which were obtained by the experimental procedure mentioned above.

[16] = system: Veronica persica (VERPE); test: Herbicidal early post-emergence action; conditions: 1900 g/ha; scored visually 9 to 12 days after treatment vs untreated controls; 100% = plants have died, 0% = like control plants
Protocol: as §3

[17] = system: Lolium perenne (LOLPE); test: Herbicidal early post-emergence action; conditions: 1900 g/ha; scored visually 9 to 12 days after treatment vs untreated controls; 100% = plants have died, 0% = like control plants
Protocol: as §3

[18] = system: Setaria viridis (SETVI); test: Herbicidal early post-emergence action; conditions: 1900 g/ha; scored visually 9 to 12 days after treatment vs untreated controls; 100% = plants have died, 0% = like control plants
Protocol: as §3

[19] = system: Diplotaxis muralis (DIPTE); test: Herbicidal early post-emergence action; conditions: 1900 g/ha; scored visually 9 to 12 days after treatment vs untreated controls; 100% = plants have died, 0% = like control plants
Protocol: as §3

[20] = system: Poa annua (POAAN); test: Herbicidal early post-emergence action; conditions: 1900 g/ha; scored visually 9 to 12 days after treatment vs untreated controls; 100% = plants have died, 0% = like control plants
Protocol: as §3

Row | SMILES | Post-emergence action against Amaranthus retroflexus (AMARE) [1] | Post-emergence action against Abutilon theophrasti (ABUTH) [2] | Post-emergence action against Stellaria media (STEME) [3] | Post-emergence action against Setaria viridis (SETVI) [4] | Post-emergence action against Echinochloa crus-galli (ECHCG) [5] | Post-emergence action against Poa annua (POAAN) [6] | Pre-emergence action against Amaranthus retroflexus (AMARE) [7] | Pre-emergence action against Abutilon theophrasti (ABUTH) [8] | Pre-emergence action against Stellaria media (STEME) [9] | Pre-emergence action against Setaria viridis (SETVI) [10] | Pre-emergence action against Echinochloa crus-galli (ECHCG) [11] | Pre-emergence action against Lolium rigidum (LOLRI) [12] | Pre-emergence action against Poa annua (POAAN) [13] | Pre-emergence action against Matricaria inodora (MATIN) [14] | Early post-emergence action against Agrostis tenuis (AGSTE) [15] | Early post-emergence action against Veronica persica (VERPE) [16] | Early post-emergence action against Lolium perenne (LOLPE) [17] | Early post-emergence action against Setaria viridis (SETVI) [18] | Early post-emergence action against Diplotaxis muralis (DIPTE) [19] | Early post-emergence action against Poa annua (POAAN) [20]
1 | Cc1cc(Oc2ncc(Cl)cn2)c(Sc2ccc(F)cc2)c(C)n1 [Example 1-26, 2,6-Dimethyl-3-(4-fluorophenylthio)-4-(5-chloropyrimidin-2-yloxy)pyridine] | 100% | 100% | 100% | 90% | 100% | 100% | 100% | 100% | 100% | 100% | 100% | 100% | 100% | 100% |  |  |  |  |  | 
2 | Cc1cc(Oc2ncc(Cl)cn2)c(Sc2ccc(F)c(F)c2)c(C)n1 [Example 1-27] | 100% | 90% | 100% |  | 100% |  | 100% | 90% | 100% | 100% | 100% | 100% | 100% | 100% |  |  |  |  |  | 
3 | Cc1cc(Oc2ncc(Cl)cn2)c(Sc2cccc(C(F)(F)F)c2)c(C)n1 [Example 1-28] | 90% |  | 100% |  |  | 100% | 90% |  | 100% |  |  |  | 90% | 90% |  |  |  |  |  | 
4 | Cc1cc(Oc2ncc(Cl)cn2)c(Sc2ccc(C#N)cc2)c(C)n1 [Example 1-30] |  |  | 100% |  | 100% | 100% | 100% | 90% | 100% | 90% | 100% | 90% | 100% | 90% |  |  |  |  |  | 
5 | COC(=O)c1cc(Oc2ncc(Cl)cn2)c(Sc2ccc(F)cc2)c(C(=O)OC)n1 [Example 1-50] |  |  |  |  |  |  |  |  |  |  |  |  |  |  | 80% |  |  |  |  | 
6 | Cc1nccc(Oc2ncc(Cl)cn2)c1Sc1ccc(F)cc1 [Example 1-86] |  |  |  |  |  |  |  |  |  |  |  |  |  |  | 100% | 80% | 80% | 80% | 80% | 100%
7 | Cc1nccc(Oc2ncc(F)cn2)c1Oc1ncc(F)cn1 [Example 1-91] |  |  |  |  |  |  | 100% |  | 90% |  |  |  |  | 90% |  |  |  |  |  | 
